Source: US20100234372A1, “SUBSTITUTED 2-MERCAPTOQUINOLINE-3-CARBOXAMIDES AS KCNQ2/3 MODULATORS” (GRUNENTHAL GMBH, priority 2009, published 2010)

Biological target: T1, KCNQ2/3 channels (Homo sapiens, UniProt O43525+O43526)
T1 construct: expressed in transfected cells; host or cells: CHO-K1 cells
Assay: Fluorescence assay using a voltage-sensitive dye (fluorimetry)
Format: cell-based
Conditions: for EC50: CHO-K1 cells expressing KCNQ2/3 channels; for Emax at 1 µM: 50 μM retigabine = 100%, CHO-K1 cells expressing KCNQ2/3, read-out: Fluorimetry % efficacy at 1 μM (50 μM retigabine = 100%)
Procedure: […] CHO-K1 cells expressing KCNQ2/3 channels are cultivated adherently at 37° C., 5% CO2 and 95% humidity in cell culture bottles (e.g. 80 cm^2 TC flasks, Nunc) with DMEM-high glucose (Sigma Aldrich, D7777) including 10% FCS (PAN Biotech, e.g. 3302-P270521) or alternatively MEM Alpha Medium (1×, liquid, Invitrogen, #22571), 10% foetal calf serum (FCS) (Invitrogen, #10270-106, heat-inactivated) and the necessary selection antibiotics.
Before being seeded out for the measurements, the cells are washed with a 1×DPBS buffer without Ca^2+/Mg^2+ (e.g. Invitrogen, #14190-094) and detached from the bottom of the culture vessel by means of Accutase (PAA Laboratories, #L11-007) (incubation with Accutase for 15 min at 37° C.). The cell count then present is determined using a CASY™ cell counter (TCC model, Scharfe System) in order subsequently to apply 20,000 to 30,000 cells/well/100 μl of the described nutrient medium, depending on density optimisation for the individual cell line, to 96-well measuring plates of the Corning™ CeIIBIND™ type (flat clear-bottom black polystyrene microplates, #3340). Incubation is then carried out for one hour at room temperature, without gassing or adjusting the humidity, followed by incubation for 24 hours at 37° C., 5% CO2 and 95% humidity.
The voltage-sensitive fluorescent dye from the Membrane Potential Assay Kit (Red™ bulk format part R8123 for FLIPR, MDS Analytical Technologies™) is prepared by dissolving the contents of a vessel of Membrane Potential Assay Kit Red Component A in 200 ml of extracellular buffer (ES buffer, 120 mM NaCl, 1 mM KCl, 10 mM HEPES, 2 mM CaCl2, 2 mM MgCl2, 10 mM glucose; pH 7.4). After removal of the nutrient medium, the cells are washed with 200 μl of ES buffer, then covered with a layer of 100 μl of the dye solution prepared above and incubated for 45 min at room temperature with exclusion of light.
The fluorescence measurements are carried out with a BMG Labtech FLUOstar™, BMG Labtech NOVOstar™ or BMG Labtech POLARstar™ instrument (525 nm excitation, 560 nm emission, bottom-read mode). After incubation of the dye, 50 μl of the substances to be tested in the desired concentrations, or 50 μl of ES buffer for control purposes, are introduced into separate cavities of the measuring plate and incubated for 30 min at room temperature whilst being shielded from light. The fluorescence intensity of the dye is then measured for 5 min and the fluorescence value F1 of each well is thus determined at a given, constant time. 15 μl of a […] KCl solution ([…]) are then added to each well. The change in fluorescence is subsequently measured until all relevant measured values have been obtained (mainly 5-30 min). At a given time after KCl application, a fluorescence value F2 is determined, in this case at the time of the fluorescence peak.
For calculation, the fluorescence intensity F2 is compared with the fluorescence intensity F1, and the agonistic activity of the target compound on the potassium channel is determined therefrom. F2 and F1 are calculated as follows: […]
is determined by adding to the reaction batch only the buffer solution instead of the substance to be tested, determining the value F1K of the fluorescence intensity, adding the potassium ions as described above and measuring a value F2K of the fluorescence intensity. Then F2K and F1K are calculated as follows: […]
Calculations of EC50 values are carried out with the aid of Prism v4.0 software (GraphPad Software™).

SMILES | EC50 [nM] | Emax at 1 µM [%]
CCSc1nc2cc(C(F)(F)F)ccc2c(C)c1C(=O)NCc1cccc(C(C)(C)C)c1 [compound 56] | 67 | 97
CCSc1nc2cc(C(F)(F)F)ccc2c(C)c1C(=O)NCCCC(C)C [compound 57] | 150 | 205
CCSc1nc2cc(C(F)(F)F)ccc2c(C)c1C(=O)NCc1ccc(C)s1 [compound 69] | 858 | 123
CCSc1nc2cc(C(F)(F)F)ccc2c(C)c1C(=O)NCc1cc(C)cs1 [compound 70] | 1460 | 114
CCSc1nc2cc(C(F)(F)F)ccc2c(C)c1C(=O)NCc1ccc(Cl)s1 [compound 71] | 305 | 163
CCSc1nc2cc(C(F)(F)F)ccc2c(C)c1C(=O)NCCc1cccs1 [compound 72] | 732 | 59
CCSc1nc2cc(C(F)(F)F)ccc2c(C)c1C(=O)NCC1CC2CCC1C2 (centres unmarked) [compound 73] | – | 25
CCSc1nc2cc(C(F)(F)F)ccc2c(C)c1C(=O)NCc1ccccc1 [compound 74] | 163 | 128
CCSc1nc2cc(C(F)(F)F)ccc2c(C)c1C(=O)NCc1ccccc1F [compound 75] | 71 | 88
CCSc1nc2cc(C(F)(F)F)ccc2c(C)c1C(=O)NCc1ccccc1Cl [compound 78] | – | 33
CCSc1nc2cc(C(F)(F)F)ccc2c(C)c1C(=O)NCc1cccc(Cl)c1 [compound 79] | 124 | 116
CCSc1nc2cc(C(F)(F)F)ccc2c(C)c1C(=O)NCc1ccc(Cl)cc1 [compound 80] | 148 | 135
CCSc1nc2cc(C(F)(F)F)ccc2c(C)c1C(=O)NCc1ccccc1C [compound 81] | – | 28
CCSc1nc2cc(C(F)(F)F)ccc2c(C)c1C(=O)NCc1cccc(C)c1 [compound 82] | 219 | 108
CCSc1nc2cc(C(F)(F)F)ccc2c(C)c1C(=O)NCc1ccc(C)cc1 [compound 83] | 242 | 130
CCSc1nc2cc(C(F)(F)F)ccc2c(C)c1C(=O)NCc1ccccc1OC [compound 84] | – | 25
CCSc1nc2cc(C(F)(F)F)ccc2c(C)c1C(=O)NCc1cccc(OC)c1 [compound 85] | 413 | 89
CCSc1nc2cc(C(F)(F)F)ccc2c(C)c1C(=O)NCc1ccc(OC)cc1 [compound 86] | 565 | 108
CCSc1nc2cc(C(F)(F)F)ccc2c(C)c1C(=O)NCc1cc(F)cc(F)c1 [compound 87] | 144 | 159
CSc1nc2cc(C(F)(F)F)ccc2c(C)c1C(=O)NCc1cccs1 [compound 88] | 212 | 154
CCSc1nc2cc(C(F)(F)F)ccc2cc1C(=O)NCC(C)(C)C [compound 90] | 842 | 53
CCSc1nc2ccccc2c(C)c1C(=O)NCc1cccs1 [compound 91] | 1210 | 50
CCSc1nc2ccccc2c(C)c1C(=O)NCc1cccc(F)c1 [compound 92] | 950 | 65
Cc1c(C(=O)NCc2cccc(F)c2)c(SC(C)(C)C)nc2cc(C(F)(F)F)ccc12 [compound 93] | 88 | 157
CCSc1nc2cc(C(C)(C)C)ccc2c(C)c1C(=O)NCc1cccc(F)c1 [compound 95] | 627 | 96
CCSc1nc2cc(C(C)(C)C)ccc2c(C)c1C(=O)NCc1ccc(F)cc1 [compound 96] | 808 | 101
CCSc1nc2cc(OC)ccc2c(C)c1C(=O)NCc1cccc(F)c1 [compound 97] | 622 | 60
CCSc1nc2cc(OC)ccc2c(C)c1C(=O)NCc1ccc(F)cc1 [compound 98] | 404 | 70
CCSc1nc2ccc(C)cc2c(C)c1C(=O)NCc1cccc(F)c1 [compound 99] | 623 | 90
CCSc1nc2ccc(C)cc2c(C)c1C(=O)NCc1ccc(F)cc1 [compound 100] | 337 | 45

Results, then the compound that gave them:

EC50 [nM] | Emax at 1 µM [%] | SMILES
– | 17 | CCSc1nc2ccc(OC)cc2c(C)c1C(=O)NCc1cccc(F)c1 [compound 101]
– | 14 | CCSc1nc2ccc(OC)cc2c(C)c1C(=O)NCc1ccc(F)cc1 [compound 102]
784 | 115 | CCSc1nc2ccc(C(F)(F)F)cc2c(C)c1C(=O)NCc1cccc(F)c1 [compound 103]
– | 25 | CCSc1nc2ccc(C(F)(F)F)cc2c(C)c1C(=O)NCc1ccc(F)cc1 [compound 104]
248 | 140 | CCSc1nc2cc(F)ccc2c(C)c1C(=O)NCc1cccc(F)c1 [compound 105]
216 | 143 | CCSc1nc2cc(F)ccc2c(C)c1C(=O)NCc1ccc(F)cc1 [compound 106]
499 | 161 | CCSc1nc2cc(C)ccc2c(C)c1C(=O)NCc1cccc(F)c1 [compound 107]
509 | 149 | CCSc1nc2cc(C)ccc2c(C)c1C(=O)NCc1ccc(F)cc1 [compound 108]
89 | 183 | CCSc1nc2cc(C(F)(F)F)ccc2c(C)c1C(=O)NCc1ccco1 [compound 110]
86 | 178 | CCSc1nc2cc(C(F)(F)F)ccc2c(C)c1C(=O)NCc1ccc(C)o1 [compound 111]
3990 | 66 | CCSc1nc2cc(C(F)(F)F)ccc2c(C)c1C(=O)NCc1cccc(O)c1 [compound 113]
169 | 175 | CSc1nc2cc(C(F)(F)F)ccc2c(C)c1C(=O)NCc1cccc(F)c1 [compound 114]
136 | 150 | CSc1nc2cc(C(F)(F)F)ccc2c(C)c1C(=O)NCc1ccc(F)cc1 [compound 115]
598 | 147 | CCSc1nc2ccc(F)cc2c(C)c1C(=O)NCc1cccc(F)c1 [compound 116]
222 | 87 | CCSc1nc2ccc(F)cc2c(C)c1C(=O)NCc1ccc(F)cc1 [compound 117]
147 | 149 | CCSc1nc2cc(F)c(F)cc2c(C)c1C(=O)NCc1cccc(F)c1 [compound 118]
2750 | 72 | CCSc1nc2cc(C(F)(F)F)ccc2c(C)c1C(=O)NCc1ccc(O)cc1 [compound 119]
1210 | 157 | CCSc1nc2c(F)cccc2c(C)c1C(=O)NCc1cccc(F)c1 [compound 120]
334 | 90 | CCSc1nc2c(F)cccc2c(C)c1C(=O)NCc1ccc(F)cc1 [compound 121]
65 | 171 | CCSc1nc2cc(C(F)(F)F)ccc2c(Cl)c1C(=O)NCc1cccc(F)c1 [compound 122, 4-Chloro-2-ethylsulfanyl-N-[(3-fluorophenyl)-methyl]-7-(trifluoromethyl)-quinoline-3-carboxamide]
– | 8 | CCSc1nc2cccc(F)c2c(C)c1C(=O)NCc1cccc(F)c1 [compound 123]
– | 8 | CCSc1nc2cccc(F)c2c(C)c1C(=O)NCc1ccc(F)cc1 [compound 124]
– | 14 | CCSc1nc2cccc(OC)c2c(C)c1C(=O)NCc1cccc(F)c1 [compound 125]
– | 5 | CCSc1nc2cccc(OC)c2c(C)c1C(=O)NCc1ccc(F)cc1 [compound 126]
– | 18 | CCSc1nc2cccc(O)c2c(C)c1C(=O)NCc1cccc(F)c1 [compound 127]
